Columns and labels:
Type in all cases: cell-based, human
B-CLL cells = experiment: Hoechst 33342 apoptosis assay, B-CLL cells; conditions: for apoptosis by Hoechst 33342 analysis: 48 hrs culture, Roli 10 μM, HC 1 μM
Description: FIGS. 1A-D show the effects of the cyclic nucleotide phosphodiesterase inhibitors rolipram, RO20-1724 and cilostamide on hydrocortisone and dexamethasone-induced apoptosis in B-CLL. In FIG. 1A, leukemic cells from 11 B-CLL patients were assessed for apoptosis by […] analysis after 48 hrs culture in media alone (No treatment), 10 μM rolipram (Roli), 1 μM hydrocortisone (HC) or a combination of the two drugs (Roli+HC). In FIGS. 1B and 1C, leukemic cells from five patients with B-CLL were cultured in media alone or with a dose titration of hydrocortisone (1B: solid line) or dexamethasone (1C: solid line), followed by assessment for apoptosis by Hoechst 33342 FACS analysis at 48 hours. Using the same experimental conditions, the effect of addition of 10 μM rolipram (thick dashed line) to the glucocorticoids was also assessed. In FIG. 1D, the apoptotic effects of the PDE4 inhibitor RO20-1724 (RO20) (10 μM) or the PDE3 inhibitor cilostamide (Cilost) (10 μM) were assessed on B-CLL cells when combined with 1 μM hydrocortisone. Data represent the mean±SEM of triplicate samples.
Blood samples were obtained by IRB-approved consent from flow cytometry-confirmed B-CLL patients that were either untreated or for whom at least one month had elapsed since chemotherapy. Patients with active infections or other serious medical conditions were not included in this study.
CCRF-CEM cells were obtained from ATCC^27. Leukemic or normal mononuclear cells were obtained by centrifugation over Histopaque 1077 (Sigma Chemical Company, St. Louis, Mo.). For purification of T cells, whole mononuclear cells from normal subjects were incubated with magnetic beads coated with appropriate antibodies, then positively purified using a magnet (Miltenyi). Cells were cultured in RPMI 1640 media (Biowhittaker, Walkersville, Md.) supplemented with 10% fetal calf serum, 50 μMol/L 2-mercaptoethanol, 2 mMol/L L-glutamine, 10 mM Hepes pH 7.4, […] (Sigma Chemical Company, St. Louis, Mo.). For isolation of glucocorticoid resistant clones, parental CCRF-CEM cells were treated with 1 μM dexamethasone for 10 days, and surviving cells diluted to ≦one cell/well in a 96-well flat-bottom tissue culture plate, grown for three weeks in media supplemented with 20% fetal calf serum and 1% insulin-transferrin-selenium (GIBCO), and then transferred to regular growth medium. […] For isolation of glucocorticoid-sensitive clones, the same procedure was used, except that treatment with dexamethasone was omitted. A glucocorticoid-sensitive subclone (CEM-S2) was inhibited in its survival by dexamethasone with an IC50=0.007 μM.
Hoechst 33342 and DiOC6(3) apoptosis assays were performed as previously described^22,28. For CCRF-CEM cell survival assays, cells were plated at a density of 3×10^4/well in 96-well flat-bottom plates in the presence of test reagents or vehicle in 0.1 mL media. Following incubation for 72 hrs, 20 μl of a 20:1 MTS (2 mg/mL)/PMS (0.92 mg/ml) solution was added to each well, and the plates incubated for 2 hrs at 37°. The absorbance (O.D.) of the formazan product was determined at 492 nm using a plate reader (Titertek Multiscan Plus, Labsystems). Percent cell viability was calculated as follows: (O.D. control sample−O.D. blank)/(O.D. test sample−O.D. blank)×100. All assays were performed in triplicate.

peripheral blood T cells = experiment: Hoechst 33342 apoptosis assay, peripheral blood T cells; conditions: 10 μM rolipram
Description: Magnetic bead purified peripheral blood T cells or leukemic cells from patients with B-CLL or Sezary syndrome were cultured in media alone or with a dose titration of hydrocortisone (solid line), followed by assessment for apoptosis by Hoechst 33342 FACS analysis at 48 hours. Using the same experimental conditions, the effect of addition of 10 μM rolipram (thick dashed line) or 10 μM rolipram and 40 μM forskolin (dotted line) was also assessed. The SEM of triplicate samples is shown; where not visible, the SEM was less than 1.0%.
CCRF-CEM cells were obtained from ATCC^27. Leukemic or normal mononuclear cells were obtained by centrifugation over Histopaque 1077 (Sigma Chemical Company, St. Louis, Mo.). For purification of T cells, whole mononuclear cells from normal subjects were incubated with magnetic beads coated with appropriate antibodies, then positively purified using a magnet (Miltenyi). […]
Hoechst 33342 and DiOC6(3) apoptosis assays were performed as previously described^22,28. […] The absorbance (O.D.) of the formazan product was determined at 492 nm using a plate reader (Titertek Multiscan Plus, Labsystems). Percent cell viability was calculated as follows: (O.D. control sample−O.D. blank)/(O.D. test sample−O.D. blank)×100. […]

[1] = system: PDE4A, PDE4B or PDE4D expression in B-CLL cells; experiment: Western analysis of PDE4 isoforms, B-CLL cells; conditions: 10 μM rolipram, 18 hours
Description: (§1) B-CLL and CCRF-CEM cells were incubated for 18 hours with media alone, 10 μM rolipram, 10 μM forskolin (Fsk), 1 μM hydrocortisone (HC), or the same concentration of rolipram combined with 1 μM hydrocortisone (Roli+HC) or 10 μM forskolin (Roli+Fsk). Lysates of the cells were then assessed for expression of PDE4A, PDE4B or PDE4D by Western analysis. Equal loading of samples was verified by immunoblotting for tubulin.
30 million B-CLL cells or 10 million CCRF-CEM cells were incubated for 18 hours in media alone or with the addition of drugs as indicated in the text. Western analysis was then carried out as previously described^30. The PDE4A (66C12H), PDE4B (96G7A) and PDE4D (61D10E) antibodies were kind gifts from Dr. Sharon Wolda (ICOS, Bothell, Wash.) and have been previously described^30 31.

[2] = system: PDE4A, PDE4B or PDE4D expression in CCRF-CEM cells; experiment: Western analysis of PDE4 isoforms, CCRF-CEM cells; conditions: rolipram
Description: as §1
30 million B-CLL cells or 10 million CCRF-CEM cells were incubated for 18 hours in media alone or with the addition of drugs as indicated in the text. Western analysis was then carried out as previously described^30.

## COc1ccc(C2CNC(=O)C2)cc1OC1CCCC1 (stereo not drawn) [rolipram, 4-(3-cyclopentyloxy-4-methoxyphenyl)-2-pyrrolidone]
B-CLL cells; 10 μM rolipram + dexamethasone dose titration, 48 hours
  B-CLL apoptosis, rolipram added to dexamethasone: augmented B-CLL apoptosis beyond the levels observed with either agent alone
B-CLL cells; B-CLL patient #1, No Rx 10
  apoptosis by Hoechst 33342 analysis: 17%
B-CLL cells; B-CLL patient #2, No Rx 11
  apoptosis by Hoechst 33342 analysis: 13%
B-CLL cells; B-CLL patient #3, No Rx 13
  apoptosis by Hoechst 33342 analysis: 24%
B-CLL cells; B-CLL patient #4, No Rx 23
  apoptosis by Hoechst 33342 analysis: 34%
B-CLL cells; B-CLL patient #5, No Rx 25
  apoptosis by Hoechst 33342 analysis: 37%
B-CLL cells; B-CLL patient #6, No Rx 27
  apoptosis by Hoechst 33342 analysis: 45%
B-CLL cells; B-CLL patient #7, No Rx 31
  apoptosis by Hoechst 33342 analysis: 67%
B-CLL cells; B-CLL patient #8, No Rx 33
  apoptosis by Hoechst 33342 analysis: 62%
B-CLL cells; B-CLL patient #9, No Rx 35
  apoptosis by Hoechst 33342 analysis: 81%
B-CLL cells; B-CLL patient #10, No Rx 44
  apoptosis by Hoechst 33342 analysis: 58%
B-CLL cells; B-CLL patient #11, No Rx 61
  apoptosis by Hoechst 33342 analysis: 75%
B-CLL cells; addition of 10 μM rolipram to 100 μM hydrocortisone, five patients
  augmentation of induction of apoptosis relative to the increment induced with 100 μM hydrocortisone alone: 40±18%
Peripheral blood T cells
  augmentation of the apoptotic effect of 1 μM hydrocortisone on T cells: failed to augment
  induction of apoptosis in peripheral blood T cells: failed to induce apoptosis
[1]
  expression of 63 and 68 kDa form of PDE4D: either no or very low level rolipram-induced expression
  expression of 63 and 68 kDa forms of PDE4B: rolipram-inducible expression
[2]
  induction of PDE4 isoforms: nor induced any PDE4 isoform

— patent publication US20080051379A1, “Compositions and Methods for the Treatment of Peripheral B-Cell Neoplasms” (Trustees of Boston University, priority 2004, published 2008)
